Key:
[1] = target: HCV cap-independent translation; test: In vitro translation assay, FF-HCV-Ren construct, cap-independent (Ren luciferase); assay type: biochemical, rabbit reticulocyte lysates
From the text: (§1) The bicistronic dual-reporter constructs that contain the firefly luciferase (FF) sequence, followed by the (encephalomyocarditis virus) EmCV and Hepatitis C virus (HCV) IRES, respectively, and the Renilla reniformis (Ren) luciferase sequence, has been previously described (Bordeleau Me., et al. Functional characterization of IRESes by an inhibitor of the RNA helicase eIF4A. Nature chemical biology. 2006; 2:213-20). For measurement of translation from the FF-EmCV-Ren and FF-HCV-Ren constructs, rabbit reticulocyte lysates (RRL) (Life Technologies, Carlsbad, Calif., USA) and the Dual-Glo (Promega, Madison, Wis., USA) read-outs were chosen. Two μl rabbit reticulocyte lysates mixed with Translation Mix 20× (-Met) and Translation Mix 20× (-Leu) in a ratio of 1:1 were pre-incubated with test compounds in 1536-well plates for 1 h at room temperature. Then, translation was started by adding 0.1 μg RNA per well and incubated for 2 h at 30° C. After a short chill phase, 2.5 μl Dual-Glo reagent 1 was added to each well and incubated for 10 min before reading the FF luciferase activity with the ViewLux uHTS Microplate Imager (Perkin Elmer, Waltham, Mass., USA). Directly after, 2.5 μl Dual-Glo reagent 2 was dispensed to each well and incubated at room temperature for 10 min before reading the Ren luciferase activity on the ViewLux. To exclude the possibility that test compounds interfere with any of the luciferase activities, a counter assay was performed in which the compounds were added after the completion of the in vitro translation.

[2] = target: EmCV Cap-dependent translation; test: In vitro translation assay, FF-EmCV-Ren construct, cap-dependent (FF luciferase); assay type: biochemical, rabbit reticulocyte lysates
From the text: as §1

A375 = test: 48 h Cytotoxicity A375; assay type: cell-based; conditions: Homo sapiens, A-375
[3] = target: HCV cap-dependent translation; test: In vitro translation assay, FF-HCV-Ren construct, cap-dependent (FF luciferase); assay type: biochemical, rabbit reticulocyte lysates
From the text: as §1

[4] = target: EmCV Cap-independent translation; test: In vitro translation assay, FF-EmCV-Ren construct, cap-independent (Ren luciferase); assay type: biochemical, rabbit reticulocyte lysates
From the text: as §1

Structure (SMILES) | IC50 [1] [µM] | IC50 [2] [µM] | IC50 (A375) [µM] | IC50 [3] [µM] | IC50 [4] [µM]
Cc1ccc(-c2c(C(=O)/C=C/c3cncc(F)c3)c(=O)[nH]c3ccc(Cl)cc23)cc1 [Compound 85, 3-[(2E)-3-(5-fluoro(3-pyridyl))prop-2-enoyl]-6-chloro-4-(4-methylphenyl)hydroquinolin-2-one] | 2 to 10 | 2 to 10 | < 2 | 2 to 10 | 2 to 10
O=C(/C=C/c1c(F)cccc1F)c1c(-c2ccccc2)c2cc(Cl)ccc2[nH]c1=O [Compound 42, 6-Chloro-3-[3-(2,6-difluoro-phenyl)-acryloyl]-4-phenyl-1H-quinolin-2-one] | 2 to 10 | 2 to 10 | < 2 | 2 to 10 | 2 to 10
Cc1ccnc(-c2c(C(=O)/C=C/c3cncc(F)c3)c(=O)[nH]c3ccc(Cl)cc23)c1 [Compound 93, 3-[(2E)-3-(5-fluoro(3-pyridyl))prop-2-enoyl]-6-chloro-4-(4-methyl(2-pyridyl))hydroquinolin-2-one] | > 20 | > 20 | < 2 | > 20 | 10 to 20
COCCn1c(/C=C/C(=O)c2c(-c3ccccc3)c3cc(Cl)ccc3[nH]c2=O)nc2ccccc21 [Compound 57, 6-Chloro-3-{3-[1-(2-methoxy-ethyl)-1H-benzoimidazol-2-yl]-acryloyl}-4-phenyl-1H-quinolin-2-one] | 2 to 10 | 2 to 10 | 2 to 10 | 2 to 10 | 2 to 10
COc1ccc(-c2c(C(=O)/C=C/c3nc4ccccc4[nH]3)c(=O)[nH]c3ccc(Cl)cc23)cc1 [Compound 3, 3-(3-1H-Benzoimidazol-2-yl-acryloyl)-6-chloro-4-(4-methoxy-phenyl)-1H-quinolin-2-one] | > 20 | 10 to 20 | < 2 | 10 to 20 | > 20
O=C(/C=C/c1ccccn1)c1c(-c2cncc(Cl)c2)c2cc(Cl)ccc2[nH]c1=O [Compound 102, 3-((2E)-3-(2-pyridyl)prop-2-enoyl)-6-chloro-4-(5-chloro(3-pyridyl))hydroquinolin-2-one] | 10 to 20 | 10 to 20 | 2 to 10 | 10 to 20 | 10 to 20
CN(C)c1ccc(-c2c(C(=O)/C=C/c3cncc(F)c3)c(=O)[nH]c3ccc(Cl)cc23)cc1 [Compound 109, 3-[(2E)-3-(5-fluoro(3-pyridyl))prop-2-enoyl]-4-[4-(dimethylamino)phenyl]-6-chlorohydroquinolin-2-one] | 2 to 10 | 2 to 10 | 2 to 10 | 2 to 10 | 2 to 10
O=C(/C=C/c1ccncc1)c1c(-c2ccccc2)c2cc(Cl)ccc2[nH]c1=O [Compound 28, 6-Chloro-4-phenyl-3-(3-pyridin-4-yl-acryloyl)-1H-quinolin-2-one] | 2 to 10 | 2 to 10 | < 2 | 2 to 10 | 2 to 10
O=C(CCc1nc2ccccc2[nH]1)c1c(-c2ccccc2)c2cc(Cl)ccc2[nH]c1=O [Compound 68, 3-(3-1H-Benzoimidazol-2-yl-propionyl)-6-chloro-4-phenyl-1H-quinolin-2-one] | > 20 | > 20 | > 20 | > 20 | > 20
Cc1ccc(/C=C/C(=O)c2c(-c3ccccc3)c3cc(Cl)ccc3[nH]c2=O)nc1 [Compound 48, 6-Chloro-3-[3-(5-methyl-pyridin-2-yl)-acryloyl]-4-phenyl-1H-quinolin-2-one] | 10 to 20 | 2 to 10 | 2 to 10 | 2 to 10 | 2 to 10
COc1cncc(-c2c(C(=O)/C=C/c3ccccn3)c(=O)[nH]c3ccc(Cl)cc23)c1 [Compound 98, 3-((2E)-3-(2-pyridyl)prop-2-enoyl)-6-chloro-4-(5-methoxy(3-pyridyl))hydroquinolin-2-one] | 10 to 20 | 10 to 20 | 2 to 10 | 10 to 20 | 10 to 20
Cn1c(/C=C/C(=O)c2c(-c3ccccc3)c3cc(Cl)ccc3[nH]c2=O)nc2ccccc21 [Compound 53, 6-Chloro-3-[3-(1-methyl-1H-benzoimidazol-2-yl)-acryloyl]-4-phenyl-1H-quinolin-2-one] | 2 to 10 | 2 to 10 | 2 to 10 | 2 to 10 | 2 to 10
